Assay results taken from the NIST ThermoML archive (doi:10.1016/j.jct.2006.10.008).

How the values were obtained:
[1] = xn = mol fraction of the nth substance listed; settings: 298.15 K, 101 kPa, Liquid
[2] = excess molar enthalpy (molar enthalpy of mixing); xn = mol fraction of the nth substance listed; settings: 298.15 K, 101 kPa, Liquid, Calvet calorimetry

ClCCCCl [1,3-dichloropropane] + CCCCOC=O
Settings	excess molar enthalpy [kcal/mol]	mass density [kg/m3]
[1], x2 = 0.0505	–	1161.51
[1], x2 = 0.101	–	1144.56
[1], x2 = 0.1523	–	1127.68
[1], x2 = 0.2044	–	1110.9
[1], x2 = 0.2581	–	1094
[1], x2 = 0.313	–	1077.09
[1], x2 = 0.3693	–	1060.1
[1], x2 = 0.4847	–	1026.45
[1], x2 = 0.5445	–	1009.59
[1], x2 = 0.6675	–	976.01
[1], x2 = 0.7309	–	959.34
[1], x2 = 0.7964	–	942.5
[1], x2 = 0.862	–	925.98
[1], x2 = 0.9296	–	909.27
[2], x2 = 0.0521	-0.00691	–
[2], x2 = 0.1142	-0.0126	–
[2], x2 = 0.1765	-0.0207	–
[2], x2 = 0.2379	-0.0303	–
[2], x2 = 0.2982	-0.0385	–
[2], x2 = 0.3557	-0.049	–
[2], x2 = 0.4108	-0.0593	–
[2], x2 = 0.4602	-0.0664	–
[2], x2 = 0.5057	-0.0712	–
[2], x2 = 0.5508	-0.0716	–
[2], x2 = 0.6114	-0.069	–
[2], x2 = 0.6872	-0.0624	–
[2], x2 = 0.7608	-0.0527	–
[2], x2 = 0.8457	-0.0376	–
[2], x2 = 0.9261	-0.0206	–

ClCCCCl [1,3-dichloropropane] + CCOC=O
Settings	excess molar enthalpy [kcal/mol]	mass density [kg/m3]
[1], x2 = 0.0758	–	1161.82
[1], x2 = 0.1392	–	1147.48
[1], x2 = 0.2059	–	1132.04
[1], x2 = 0.2686	–	1117.5
[1], x2 = 0.336	–	1101.45
[1], x2 = 0.3983	–	1086.31
[1], x2 = 0.4584	–	1071.44
[1], x2 = 0.5183	–	1056.42
[1], x2 = 0.5752	–	1041.98
[1], x2 = 0.6319	–	1027.35
[1], x2 = 0.6884	–	1012.54
[1], x2 = 0.7433	–	997.87
[1], x2 = 0.7967	–	983.56
[1], x2 = 0.849	–	969.23
[1], x2 = 0.9005	–	954.87
[1], x2 = 0.949	–	941.1
[2], x2 = 0.1171	0.00817	–
[2], x2 = 0.2311	0.0165	–
[2], x2 = 0.3403	0.0202	–
[2], x2 = 0.435	0.0196	–
[2], x2 = 0.5147	0.0165	–
[2], x2 = 0.5813	0.0124	–
[2], x2 = 0.6354	0.00894	–
[2], x2 = 0.682	0.00588	–
[2], x2 = 0.7186	0.00296	–
[2], x2 = 0.7381	-0.0037	–
[2], x2 = 0.7773	-0.00679	–
[2], x2 = 0.8208	-0.0092	–
[2], x2 = 0.8622	-0.0105	–
[2], x2 = 0.9018	-0.00858	–
[2], x2 = 0.9383	-0.00452	–
[2], x2 = 0.9723	-0.000287	–

ClCCCCl [1,3-dichloropropane] + COC=O
Settings	excess molar enthalpy [kcal/mol]	mass density [kg/m3]
[1], x2 = 0.0849	–	1165.85
[1], x2 = 0.165	–	1152.81
[1], x2 = 0.244	–	1139.5
[1], x2 = 0.3177	–	1126.33
[1], x2 = 0.386	–	1113.56
[1], x2 = 0.4563	–	1099.9
[1], x2 = 0.5138	–	1088.31
[1], x2 = 0.5789	–	1074.43
[1], x2 = 0.635	–	1062.04
[1], x2 = 0.688	–	1049.82
[1], x2 = 0.7384	–	1037.54
[1], x2 = 0.7876	–	1025.35
[1], x2 = 0.8341	–	1013.43
[1], x2 = 0.878	–	1001.59
[1], x2 = 0.9206	–	989.81
[1], x2 = 0.9607	–	978.24
[2], x2 = 0.0855	0.0211	–
[2], x2 = 0.2024	0.0493	–
[2], x2 = 0.3078	0.0673	–
[2], x2 = 0.4178	0.0803	–
[2], x2 = 0.4624	0.08236	–
[2], x2 = 0.4877	0.0832	–
[2], x2 = 0.5024	0.08372	–
[2], x2 = 0.5476	0.0843	–
[2], x2 = 0.5583	0.08203	–
[2], x2 = 0.5978	0.0807	–
[2], x2 = 0.6499	0.078	–
[2], x2 = 0.7069	0.0738	–
[2], x2 = 0.7674	0.0679	–
[2], x2 = 0.8297	0.0585	–
[2], x2 = 0.893	0.0448	–
[2], x2 = 0.9533	0.0246	–

ClCCCCCl [1,4-dichlorobutane] + CCCCOC=O
Settings	excess molar enthalpy [kcal/mol]	mass density [kg/m3]
[1], x2 = 0.0624	–	1118.28
[1], x2 = 0.1208	–	1103.88
[1], x2 = 0.1776	–	1089.9
[1], x2 = 0.2372	–	1075.3
[1], x2 = 0.346	–	1048.8
[1], x2 = 0.4096	–	1033.38
[1], x2 = 0.4679	–	1019.27
[1], x2 = 0.5213	–	1006.41
[1], x2 = 0.6434	–	977.11
[1], x2 = 0.7039	–	962.64
[1], x2 = 0.7624	–	948.68
[1], x2 = 0.821	–	934.76
[1], x2 = 0.8802	–	920.71
[1], x2 = 0.9398	–	906.62
[2], x2 = 0.0614	-0.00275	–
[2], x2 = 0.1294	-0.00724	–
[2], x2 = 0.1998	-0.0131	–
[2], x2 = 0.2674	-0.0218	–
[2], x2 = 0.3309	-0.0293	–
[2], x2 = 0.3925	-0.039	–
[2], x2 = 0.4407	-0.0473	–
[2], x2 = 0.4897	-0.0533	–
[2], x2 = 0.5404	-0.0542	–
[2], x2 = 0.5969	-0.0539	–
[2], x2 = 0.6592	-0.0513	–
[2], x2 = 0.7249	-0.0461	–
[2], x2 = 0.795	-0.0386	–
[2], x2 = 0.8656	-0.028	–
[2], x2 = 0.9356	-0.0149	–
